What follows are molecules tested against MAPK14 (UniProt Q16539) (assay: Inhibition of MAPK14 Kinase Activity).
Sequence of MAPK14 (Q16539 whole entry, looked up): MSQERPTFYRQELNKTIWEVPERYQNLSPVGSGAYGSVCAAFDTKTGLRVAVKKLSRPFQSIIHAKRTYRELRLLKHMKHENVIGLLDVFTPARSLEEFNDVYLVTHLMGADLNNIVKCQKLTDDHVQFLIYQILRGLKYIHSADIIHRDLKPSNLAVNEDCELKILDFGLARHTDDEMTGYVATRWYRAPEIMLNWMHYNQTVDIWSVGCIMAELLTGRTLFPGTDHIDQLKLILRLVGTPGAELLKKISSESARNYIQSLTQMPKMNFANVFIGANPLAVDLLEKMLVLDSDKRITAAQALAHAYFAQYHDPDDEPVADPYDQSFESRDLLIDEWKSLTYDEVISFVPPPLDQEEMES

SMILES	IC50
CC(C)S(=O)(=O)n1c(N)nc2ccc(-c3[nH]n(-c4ccc([N+](=O)[O-])cc4)c(=O)c3-c3ccc(F)cc3)cc21	≤ 5 µM
CC(C)S(=O)(=O)n1c(N)nc2ccc(-c3nc(CN(C)C)[nH]c3-c3ccccc3)cc21	≤ 5 µM
CC(C)S(=O)(=O)n1c(N)nc2ccc(-c3cc(C(C)(C)C)nn3-c3ccccc3)cc21	≤ 5 µM
CC(C)S(=O)(=O)n1c(N)nc2ccc(-c3nc(-c4ccc(N5CCCC5)cc4)[nH]c3-c3ccccc3)cc21	≤ 5 µM
CC(C)S(=O)(=O)n1c(N)nc2ccc(-c3nc(-c4ccc(F)cc4F)[nH]c3-c3cc(F)cc(F)c3)cc21	≤ 5 µM
CC(C)S(=O)(=O)n1c(N)nc2ccc(-c3nc(C4CCNCC4)[nH]c3-c3ccc(F)cc3)cc21	≤ 5 µM
CC(C)S(=O)(=O)n1c(N)nc2ccc(-c3nc(-c4cccc(Cl)c4)[nH]c3-c3ccccc3)cc21	≤ 5 µM
CC(C)S(=O)(=O)n1c(N)nc2ccc(-c3nc(C4CCN(CCN(C)C)CC4)[nH]c3-c3ccccc3)cc21	≤ 5 µM
CC(C)S(=O)(=O)n1c(N)nc2ccc(-c3nc(CCC(=O)O)[nH]c3-c3ccccc3)cc21	≤ 5 µM
CC(C)S(=O)(=O)n1c(N)nc2ccc(-c3nc(-c4cccc(OCCN5CCCC5)c4)[nH]c3-c3ccccc3)cc21	≤ 5 µM
CC(C)S(=O)(=O)n1c(N)nc2ccc(-c3nc(-c4c(F)cccc4F)[nH]c3-c3ccc(F)cc3)cc21	≤ 5 µM
CC(C)S(=O)(=O)n1c(N)nc2ccc(-c3[nH]n(-c4cc(F)ccc4F)c(=O)c3-c3ccccc3)cc21	≤ 5 µM
CC(C)c1nc(-c2ccc3nc(N)n(S(=O)(=O)C(C)C)c3c2)c(-c2ccccc2)[nH]1	≤ 5 µM
CC(C)S(=O)(=O)n1c(N)nc2ccc(-c3c(-c4ccccc4F)nc(-c4ccc(F)cc4F)n3C3CC3)cc21	≤ 5 µM
CC(C)S(=O)(=O)n1c(N)nc2ccc(-c3nc(-c4ncc[nH]4)[nH]c3-c3ccccc3)cc21	≤ 5 µM
CC(C)S(=O)(=O)n1c(N)nc2ccc(-c3nc(C(C)(C)C)[nH]c3-c3ccc(F)cc3)cc21	≤ 5 µM
CC(C)S(=O)(=O)n1c(N)nc2ccc(-c3nc(-c4ccccc4SC(F)(F)F)[nH]c3-c3ccccc3)cc21	≤ 5 µM
CC(C)S(=O)(=O)n1c(N)nc2ccc(-c3nc(CNCCN(C)C)[nH]c3-c3ccccc3)cc21	≤ 5 µM
CC(C)S(=O)(=O)n1c(N)nc2ccc(-c3c(-c4cccc(F)c4)ncn3Cc3cccnc3)cc21	≤ 5 µM
CC(C)S(=O)(=O)n1c(N)nc2ccc(-c3nc(-c4ccccc4F)[nH]c3-c3ccccc3)cc21	≤ 5 µM

SMILES	IC50
CC(C)S(=O)(=O)n1c(N)nc2ccc(-c3c(-c4ccc(F)cc4)ncn3[C@@H](C)CO)cc21	≤ 5 µM
CC(C)S(=O)(=O)n1c(N)nc2ccc(-c3nc(-c4ccc(N)s4)[nH]c3-c3ccccc3)cc21	≤ 5 µM
CC(C)S(=O)(=O)n1c(N)nc2ccc(-c3nc(C4CCN(C(=O)OCc5ccccc5)CC4)[nH]c3-c3ccccc3)cc21	≤ 5 µM
CC(C)S(=O)(=O)n1c(N)nc2ccc(-c3nc[nH]c3-c3cccc(F)c3F)cc21	≤ 5 µM
CC(C)S(=O)(=O)n1c(N)nc2ccc(-c3nc(-c4ccccc4N4CCN(C)CC4)[nH]c3-c3ccccc3)cc21	≤ 5 µM
CC(C)S(=O)(=O)n1c(N)nc2ccc(-c3nc(-c4ccc(C(F)(F)F)cc4)[nH]c3-c3ccccc3)cc21	≤ 5 µM
CC(C)S(=O)(=O)n1c(N)nc2ccc(-c3nc(-c4ccc(OCCN5CCCC5)c(F)c4)[nH]c3-c3ccccc3)cc21	≤ 5 µM
CC(C)S(=O)(=O)n1c(N)nc2ccc(-c3nc(-c4ccc(Cl)s4)[nH]c3-c3ccccc3)cc21	≤ 5 µM
CC(C)S(=O)(=O)n1c(N)nc2ccc(-c3nc(CN4CCCCC4)[nH]c3-c3ccccc3)cc21	≤ 5 µM
Cc1cccc(-c2[nH]c(C)nc2-c2ccc3nc(N)n(S(=O)(=O)C(C)C)c3c2)c1	≤ 5 µM
CC(C)c1nc(-c2ccc3nc(N)n(S(=O)(=O)C(C)C)c3c2)c(-c2ccc(F)cc2)[nH]1	≤ 5 µM
C#Cc1nc(-c2ccccc2F)c(-c2ccc3nc(N)n(S(=O)(=O)C(C)C)c3c2)n1C1CC1	≤ 5 µM
CC(C)S(=O)(=O)n1c(N)nc2ccc(-c3[nH]n(-c4ccccc4)c(=O)c3-c3ccc(F)cc3)cc21	≤ 5 µM
CC(C)S(=O)(=O)n1c(N)nc2ccc(-c3nc[nH]c3-c3cccc(C(F)(F)F)c3)cc21	≤ 5 µM
Cc1cc(F)ccc1-c1[nH]c(-c2ccc(F)cc2)nc1-c1ccc2nc(N)n(S(=O)(=O)C(C)C)c2c1	≤ 5 µM
CC(C)S(=O)(=O)n1c(N)nc2ccc(-c3c(-c4ccccc4)nc(-c4c(F)cccc4F)n3C)cc21	≤ 5 µM
CC(C)S(=O)(=O)n1c(N)nc2ccc(-c3nc(-c4nccs4)[nH]c3-c3ccccc3)cc21	≤ 5 µM
CC(C)S(=O)(=O)n1c(N)nc2ccc(-c3nc(-c4ccc(OC(F)(F)F)cc4)[nH]c3-c3ccccc3)cc21	≤ 5 µM
CCN(CC)CCOc1cccc(-c2nc(-c3ccc4nc(N)n(S(=O)(=O)C(C)C)c4c3)c(-c3ccccc3)[nH]2)c1	≤ 5 µM
CC(C)S(=O)(=O)n1c(N)nc2ccc(-c3nc[nH]c3-c3ccc(F)cc3)cc21	≤ 5 µM

Results, then the molecule that gave them:

IC50	SMILES
≤ 5 µM	Cc1cccn2c(-c3ccc4nc(N)n(S(=O)(=O)C(C)C)c4c3)c(-c3ccccc3)nc12
≤ 5 µM	CC(C)S(=O)(=O)n1c(N)nc2ccc(-c3c(-c4ccc(F)cc4F)ncn3[C@H]3CC[C@H](O)CC3)cc21
≤ 5 µM	CC(C)S(=O)(=O)n1c(N)nc2ccc(-c3c(-c4ccccc4)ncn3[C@H](C)CO)cc21
≤ 5 µM	CC(C)S(=O)(=O)n1c(N)nc2ccc(-c3nc(C4CCOCC4)[nH]c3-c3ccccc3)cc21
≤ 5 µM	CC(C)S(=O)(=O)n1c(N)nc2ccc(-c3c(-c4ccc(F)cc4)ncn3C3CCCCC3)cc21
≤ 5 µM	CC(C)S(=O)(=O)n1c(N)nc2ccc(-c3c(-c4ccccc4)ncn3Cc3cccnc3)cc21
≤ 5 µM	CCN1CCC(c2nc(-c3ccc4nc(N)n(S(=O)(=O)C(C)C)c4c3)c(-c3ccccc3)[nH]2)CC1
≤ 5 µM	CC(C)S(=O)(=O)n1c(N)nc2ccc(-c3c(-c4ccccc4)ncn3C3CCC(=O)CC3)cc21
≤ 5 µM	CC(C)S(=O)(=O)n1c(N)nc2ccc(-c3c(-c4ccccc4)ncn3C3CCC4(CC3)OCCO4)cc21
≤ 5 µM	CC(C)S(=O)(=O)n1c(N)nc2ccc(-c3c(-c4ccccc4)ncn3Cc3ccccn3)cc21
≤ 5 µM	CC(C)S(=O)(=O)n1c(N)nc2ccc(-c3c(-c4ccccc4)ncn3C3CCN(Cc4ccccc4)CC3)cc21
≤ 5 µM	CC(C)S(=O)(=O)n1c(N)nc2ccc(-c3c(-c4ccccc4)ncn3C3CCCCC3)cc21
≤ 5 µM	CC(C)S(=O)(=O)n1c(N)nc2ccc(-c3c(-c4ccccc4)nc4n3CCCC4)cc21
≤ 5 µM	CC(C)S(=O)(=O)n1c(N)nc2ccc(-c3c(-c4ccccc4)ncn3C3CCC(NC(=O)OC(C)(C)C)CC3)cc21 (centres undefined)
≤ 5 µM	COc1ccc(Cn2cnc(-c3ccccc3)c2-c2ccc3nc(N)n(S(=O)(=O)C(C)C)c3c2)cc1
≤ 5 µM	CC(C)S(=O)(=O)n1c(N)nc2ccc(-c3c(-c4ccccc4F)ncn3C3CC3)cc21
≤ 5 µM	CC(C)S(=O)(=O)n1c(N)nc2ccc(-c3c(-c4ccsc4)ncn3[C@H]3CC[C@H](O)CC3)cc21
≤ 5 µM	CC(C)S(=O)(=O)n1c(N)nc2ccc(-c3c(-c4ccccc4)ncn3[C@@H](C)CO)cc21
≤ 5 µM	CC(C)N1CCC(n2cnc(-c3ccccc3)c2-c2ccc3nc(N)n(S(=O)(=O)C(C)C)c3c2)CC1

— the Kinase Knowledgebase extract (Sharma et al. 2016)
